Calls of active or inactive are those of the source. No cut-off for these calls is given here.
Legend:
[1] = tested on: ASPC1; assay: Cytotoxicity against human ASPC1 assessed as cell viability measured for 72 hrs by cell titer glo luminescent assay; type: functional, cell-based; conditions: for IC50: ASPC1, 72 h
[2] = tested on: BXPC-3; assay: Cytotoxicity against human BXPC-3 assessed as cell viability measured for 72 hrs by cell titer glo luminescent assay; type: functional, cell-based; conditions: for IC50: BXPC-3, 72 h
[3] = tested on: SW1990; assay: Cytotoxicity against human SW1990 assessed as cell viability measured for 72 hrs by cell titer glo luminescent assay; type: functional, cell-based; conditions: for IC50: SW1990, 72 h
[4] = tested on: PANC-1; assay: Cytotoxicity against human PANC-1 assessed as cell viability measured for 72 hrs by cell titer glo luminescent assay; type: functional, cell-based; conditions: for IC50: PANC-1, 72 h
[5] = tested on: MRC5; assay: Cytotoxicity against human MRC5 assessed as cell viability measured for 72 hrs by cell titer glo luminescent assay; type: cell-based; conditions: for IC50: Homo sapiens, MRC5, 72 h
[6] = tested on: Trachea; assay: Myorelaxant effect in Sprague-Dawley rat tracheal ring assessed as relaxation of carbachol-induced smooth muscle contraction by organ bath assay; type: functional
[7] = tested on: Trachea; assay: Myorelaxant effect in Sprague-Dawley rat tracheal ring assessed as […] relaxation of carbachol-induced smooth muscle contraction by organ bath assay; type: functional, tissue-based

Structure (SMILES): O=C(/C=C/c1ccccc1)OC1CC2CCC(C1)N2C(CC(=O)OC1CC2CCC(C1)N2C(CC(=O)OC1CC2CCC(C1)N2)c1ccccc1)c1ccccc1 (racemic)
- IC50 [1]: 3.4 µM
- IC50 [2]: 2.2 µM
- IC50 [3]: 5.2 µM
- IC50 [4]: 1.1 µM
- IC50 [5]: 4.2 µM

Structure (SMILES): O=C(/C=C/c1ccccc1)OC1CC2CCC(C1)N2C(=O)CCc1ccc(O)cc1 (configuration not stated)
- Emax [6]: 106%
- EC50 [7]: 24.2 µM

Structure (SMILES): O=CN1C2CCC1CC(OC(=O)c1ccccc1)C2 (configuration not stated)
- Emax [6]: 97%
- EC50 [7]: 3.61 µM

Structure (SMILES): CN1[C@@H]2CC[C@H]1C[C@@H](OC(=O)C(CO)c1ccccc1)C2 (mixture of isomers) [ATROPINE]
- Emax [6]: 112%
- EC50 [7]: 0.00098 µM

Structure (SMILES): Nc1ccn([C@@H]2O[C@H](CO)[C@@H](O)C2(F)F)c(=O)n1 [GEMCITABINE]
- IC50 [1]: 29.1 µM
- IC50 [2]: 25.9 µM
- IC50 [3]: 25.4 µM
- IC50 [4]: 30 µM
- IC50 [5]: 35.1 µM

Structure (SMILES): O=C(/C=C/c1ccccc1)OC1CC2CCC(C1)N2 (configuration not stated)
- Activity [1]: inactive
- Activity [2]: inactive
- Emax [6]: 82.5%
- EC50 [7]: 0.44 µM
- Activity [3]: inactive
- Activity [4]: inactive
- Activity ([5]; human, mrc5, 72 h, time 72 hrs): Non-Toxic

Structure (SMILES): O=C(/C=C/c1ccccc1)OC1CC2CCC(C1)N2[C@H](CC(=O)OC1CC2CCC(C1)N2)c1ccccc1 (some centres not stated)
- IC50 [1]: 7.7 µM
- IC50 [2]: 6.6 µM
- IC50 [3]: > 10 µM
- IC50 [4]: 9.9 µM
- IC50 [5]: > 10 µM

Structure (SMILES): O=C(/C=C/c1ccccc1)OC1CC2CCC(C1)N2[C@@H](CC(=O)OC1CC2CCC(C1)N2)c1ccccc1 (some centres not stated)
- IC50 [1]: 5.8 µM
- IC50 [2]: 5.5 µM
- IC50 [3]: > 10 µM
- IC50 [4]: 10.4 µM
- IC50 [5]: 8.4 µM

Structure (SMILES): O=C(/C=C/c1ccccc1)OC1CC2CCC(C1)N2C(CC(=O)OC1CC2CCC(C1)N2)c1ccccc1 (racemic)
- IC50 [1]: 6 µM
- IC50 [2]: 4.6 µM
- Emax [6]: 71.9%
- EC50 [7]: 10.4 µM
- IC50 [3]: > 10 µM
- IC50 [4]: 10.6 µM
- IC50 [5]: 9.8 µM

Structure (SMILES): O=C(OC1CC2CCC(C1)N2)c1ccccc1 (configuration not stated)
- Emax [6]: 101%
- EC50 [7]: 7.83 µM
